According to US8158783B2, “MTP inhibiting tetrahydro-naphthalene-1-carboxylic acid derivatives” (Janssen Pharmaceutica N.V., priority 2006, dated 2012):

Key:
[1] = system: secretion of ApoB, HepG2 cells; experiment: Quantification of the secretion of ApoB in HepG2 cells; format: cell-based; details: Homo sapiens, 24 hours of incubation, pIC50 = -log IC50
Experimental: HepG2 cells were cultured in 24-well plates in MEM Rega 3 containing 10% fetal calf serum. At 70% confluency, the medium was changed and the test compound or carrier (DMSO, 0.4% final concentration) was added. After 24 hours of incubation, the medium was transferred to Eppendorf tubes and cleared by centrifugation. A sheep antibody directed against either apoB was added to the supernatant and the mixture was kept at 8° C. for 24 hours. Then, rabbit anti-sheep antibody was added and the immune complex was allowed to precipitate for 24 hours at 8° C. The immunoprecipitate was pelleted by centrifugation for 25 minutes at 1320 g and washed twice with a buffer containing 40 mM Mops, 40 mM NaH2PO4, 100 mM NaF, 0.2 mM DTT, 5 mM EDTA, 5 mM EGTA, 1% Triton-X-100, 0.5% sodium deoxycholate (DOC), 0.1% SDS, 0.2 mM leupeptin and 0.2 mM PMSF. Radioactivity in the pellet was quantified by liquid scintillation counting.

[2] = biological target: MTP (Homo sapiens, UniProt P55157); experiment: MTP assay (triglyceride transfer from donor to acceptor vesicles); format: biochemical; details: MTP activity, [14C]-triglyceride transfer between vesicles, 37° C.
Experimental: MTP activity was measured using an assay similar to one described by J. R. Wetterau and D. B. Zilversmit in Chemistry and Physics of Lipids, 38, 205-222 (1985). To prepare the donor and acceptor vesicles, the appropriate lipids in chloroform were put into a glass test tube and dried under a stream of N2. A buffer containing 15 mM Tris-HCl pH 7.5, 1 mM EDTA, 40 mM NaCl, 0.02% NaN3 (assay buffer) was added to the dried lipid. The mixture was vortexed briefly and the lipids were then allowed to hydrate for 20 min on ice. Vesicles were then prepared by bath sonication (Branson 2200) at room temperature for maximum 15 min. Butylated hydroxytoluene was included in all vesicle preparations at a concentration of 0.1%. The lipid transfer assay mixture contained donor vesicles (40 nmol phosphatidylcholine, 7.5 mol % of cardiolipin and 0.25 mol % glycerol tri[1-^14C]-oleate), acceptor vesicles (240 nmol phosphatidylcholine) and 5 mg BSA in a total volume of 675 μl in a 1.5 ml microcentrifuge tube. Test compounds were added dissolved in DMSO (0.13% final concentration). After 5 minutes of pre-incubation at 37° C., the reaction was started by the addition of MTP in 100 μl dialysis buffer. The reaction was stopped by the addition of 400 μl DEAE-52 cellulose pre-equilibrated in 15 mM Tris-HCl pH 7.5, 1 mM EDTA, 0.02% NaN3 (1:1, vol/vol). The mixture was agitated for 4 min and centrifuged for 2 min at maximum speed in an Eppendorf centrifuge (4° C.) to pellet the DEAE-52-bound donor vesicles. An aliquot of the supernatant containing the acceptor liposomes was counted and the [^14C]-counts were used to calculate the percent triglyceride transfer from donor to acceptor vesicles.

Chain of MTP (P55157 19-894, species assumed): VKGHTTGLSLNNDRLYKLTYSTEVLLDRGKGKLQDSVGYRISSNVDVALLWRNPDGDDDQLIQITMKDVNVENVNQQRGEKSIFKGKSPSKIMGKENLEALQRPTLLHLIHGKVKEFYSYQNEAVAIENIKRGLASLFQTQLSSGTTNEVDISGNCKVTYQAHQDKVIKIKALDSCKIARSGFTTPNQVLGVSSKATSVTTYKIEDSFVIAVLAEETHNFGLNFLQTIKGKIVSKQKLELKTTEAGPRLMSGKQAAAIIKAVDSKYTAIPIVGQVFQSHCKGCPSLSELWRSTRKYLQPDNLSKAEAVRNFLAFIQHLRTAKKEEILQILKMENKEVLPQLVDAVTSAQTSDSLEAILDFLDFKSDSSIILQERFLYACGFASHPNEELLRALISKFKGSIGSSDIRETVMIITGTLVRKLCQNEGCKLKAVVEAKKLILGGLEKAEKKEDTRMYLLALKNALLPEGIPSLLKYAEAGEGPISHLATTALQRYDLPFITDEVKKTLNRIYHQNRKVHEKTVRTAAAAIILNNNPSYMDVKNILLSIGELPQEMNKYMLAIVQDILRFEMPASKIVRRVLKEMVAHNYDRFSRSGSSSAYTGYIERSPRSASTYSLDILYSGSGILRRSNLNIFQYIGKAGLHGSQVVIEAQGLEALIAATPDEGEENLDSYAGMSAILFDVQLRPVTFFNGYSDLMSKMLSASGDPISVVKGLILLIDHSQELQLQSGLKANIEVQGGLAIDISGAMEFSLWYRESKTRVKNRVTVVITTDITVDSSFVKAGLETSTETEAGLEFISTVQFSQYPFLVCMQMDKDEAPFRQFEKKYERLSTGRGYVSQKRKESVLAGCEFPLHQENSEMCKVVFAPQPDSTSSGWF
Chain of MTP (P07237 18-508 partner, species assumed): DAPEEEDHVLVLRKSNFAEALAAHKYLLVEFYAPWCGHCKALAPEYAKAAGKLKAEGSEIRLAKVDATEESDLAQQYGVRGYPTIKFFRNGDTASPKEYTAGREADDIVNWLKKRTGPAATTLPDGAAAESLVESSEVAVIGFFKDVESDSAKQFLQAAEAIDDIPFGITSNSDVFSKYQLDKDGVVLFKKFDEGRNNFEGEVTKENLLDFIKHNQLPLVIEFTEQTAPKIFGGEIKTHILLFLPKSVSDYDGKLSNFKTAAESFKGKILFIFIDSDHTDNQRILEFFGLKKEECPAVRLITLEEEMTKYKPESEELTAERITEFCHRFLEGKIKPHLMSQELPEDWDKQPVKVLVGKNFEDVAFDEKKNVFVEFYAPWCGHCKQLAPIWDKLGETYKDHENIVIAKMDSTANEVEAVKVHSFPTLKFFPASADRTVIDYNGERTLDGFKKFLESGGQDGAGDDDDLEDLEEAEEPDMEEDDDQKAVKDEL

IC50 [1]	IC50 [2]	Structure (SMILES)
560 nM	173 nM	CCOC(=O)[C@]1(c2ccccc2)CC[C@@H](C(=O)NCCNC(=O)c2ccccc2OC)c2ccccc21 (stereo in doubt) [compound 26]
–	2490 nM	CCOC(=O)[C@]1(c2ccccc2)CC[C@H](C(=O)NCCNC(=O)c2ccccc2OC)c2ccccc21 [compound 14]
–	406 nM	CCOC(=O)[C@]1(c2ccccc2)CC[C@@H](C(=O)NCCNC(=O)c2ccccc2OC)c2ccccc21 [compound 2]
17.3 nM	6.52 nM	CCOC(=O)[C@@]1(c2ccccc2)CC[C@H](C(=O)NCCNC(=O)c2ccccc2OC)c2ccccc21 (stereo in doubt) [compound 25]
104 nM	40 nM	CCCOC(=O)[C@]1(c2ccccc2)CC[C@@H](C(=O)N2CCC(NC(=O)c3ccccc3OC)C2)c2ccccc21 (stereo partly shown) [compound 29]
> 1000 nM	27 nM	CCOC(=O)[C@]1(c2ccccc2)CC[C@@H](C(=O)N(C)CCNC(=O)c2ccccc2OC)c2ccccc21 [compound 8]
> 1000 nM	70.6 nM	CCOC(=O)[C@]1(c2ccccc2)CC[C@H](C(=O)N(C)CCNC(=O)c2ccccc2OC)c2ccccc21 [compound 20]
95.9 nM	7.18 nM	CCOC(=O)[C@@]1(c2ccccc2)CC[C@H](C(=O)N(C)CCCNC(=O)c2ccccc2OC)c2ccccc21 (stereo in doubt) [compound 28]
286 nM	23 nM	CCCOC(=O)[C@]1(c2ccccc2)CC[C@@H](C(=O)N2CCCC(NC(=O)c3ccccc3OC)CC2)c2ccccc21 (stereo partly shown) [compound 42]
76.7 nM	23.3 nM	CCCOC(=O)[C@]1(c2ccccc2)CCC(C(=O)N2CC[C@@H](NC(=O)c3cccnc3OC)C2)c2ccccc21 (stereo partly shown) [compound 30]
–	52.8 nM	COC(=O)CCNC(=O)[C@]1(c2ccccc2)CC[C@@H](C(=O)N2CCCC(NC(=O)c3ccccc3OC)CC2)c2ccccc21 (stereo partly shown) [compound 44]

Continued, molecule first:

Structure (SMILES)	IC50 [1]	IC50 [2]
CCOC(=O)[C@]1(c2ccccc2)CC[C@@H](C(=O)N(C)CCCNC(=O)c2ccccc2OC)c2ccccc21 [compound 11]	665 nM	–
CCOC(=O)[C@]1(c2ccccc2)CC[C@H](C(=O)N(C)CCNC(=O)c2ccccc2-c2ccc(C(F)(F)F)cc2)c2ccccc21 [compound 21]	240 nM	48.2 nM
CCOC(=O)[C@]1(c2ccccc2)CC[C@@H](C(=O)NCCNC(=O)c2ccccc2)c2ccccc21 [compound 1]	–	1250 nM
CCOC(=O)[C@]1(c2ccccc2)CC[C@H](C(=O)N(C)CCCNC(=O)c2ccccc2OC)c2ccccc21 [compound 23]	597 nM	11.6 nM
CCOC(=O)[C@]1(c2ccccc2)CC[C@@H](C(=O)N(C)CCCNC(=O)c2ccccc2)c2ccccc21 [compound 10]	746 nM	10 nM
CCOC(=O)[C@]1(c2ccccc2)CC[C@@H](C(=O)N(C)CCNC(=O)c2ccccc2-c2ccc(C(F)(F)F)cc2)c2ccccc21 [compound 9]	128 nM	19.1 nM
CCOC(=O)[C@]1(c2ccccc2)CC[C@@H](C(=O)N(C)CCNC(=O)c2ccccc2)c2ccccc21 [compound 7]	> 1000 nM	85.5 nM
COC(=O)CCNC(=O)[C@]1(c2ccccc2)CC[C@@H](C(=O)N2CCOC(CNC(=O)c3cccnc3O)C2)c2ccccc21 (stereo partly shown) [compound 43]	–	> 1000 nM
CCOC(=O)[C@]1(c2ccccc2)CC[C@H](C(=O)NCCCNC(=O)c2ccccc2-c2ccc(C(F)(F)F)cc2)c2ccccc21 [compound 18]	309 nM	61.8 nM
CCOC(=O)[C@]1(c2ccccc2)CC[C@H](C(=O)NCCCNC(=O)c2ccccc2)c2ccccc21 [compound 16]	791 nM	> 100 nM
CCOC(=O)[C@]1(c2ccccc2)CC[C@H](C(=O)NCCCNC(=O)c2ccccc2OC)c2ccccc21 [compound 17]	415 nM	37.3 nM
COC(=O)CCNC(=O)[C@]1(c2ccccc2)CC[C@@H](C(=O)N(C)CCCNC(=O)c2cccnc2OC)c2ccccc21 [compound 32]	> 1000 nM	166 nM
CCOC(=O)[C@]1(c2ccccc2)CC[C@H](C(=O)NCCNC(=O)c2ccccc2)c2ccccc21 [compound 13]	–	5380 nM
CCOC(=O)[C@]1(c2ccccc2)CC[C@H](C(=O)N(C)CCNC(=O)c2ccccc2)c2ccccc21 [compound 19]	228 nM	131 nM
CCOC(=O)[C@]1(c2ccccc2)CC[C@@H](C(=O)N(C)CCCNC(=O)c2ccccc2-c2ccc(C(F)(F)F)cc2)c2ccccc21 [compound 12]	23.2 nM	6.34 nM
CCOC(=O)[C@]1(c2ccccc2)CC[C@H](C(=O)NCCNC(=O)c2ccccc2-c2ccc(C(F)(F)F)cc2)c2ccccc21 [compound 15]	–	2750 nM
COC(=O)CCNC(=O)[C@]1(c2ccccc2)CC[C@@H](C(=O)N(C)CCCNC(=O)c2ccccc2OC)c2ccccc21 [compound 31]	> 1000 nM	65.2 nM
CCOC(=O)[C@]1(c2ccccc2)CC[C@@H](C(=O)NCCCNC(=O)c2ccccc2-c2ccc(C(F)(F)F)cc2)c2ccccc21 [compound 6]	42.7 nM	9.59 nM
CCOC(=O)[C@]1(c2ccccc2)CC[C@@H](C(=O)NCCNC(=O)c2ccccc2-c2ccc(C(F)(F)F)cc2)c2ccccc21 [compound 3]	–	208 nM
CCOC(=O)[C@]1(c2ccccc2)CC[C@H](C(=O)N(C)CCCNC(=O)c2ccccc2-c2ccc(C(F)(F)F)cc2)c2ccccc21 [compound 24]	23.2 nM	6.11 nM
CCOC(=O)[C@]1(c2ccccc2)CC[C@@H](C(=O)NCCCNC(=O)c2ccccc2OC)c2ccccc21 [compound 5]	192 nM	9.38 nM
COC(=O)CCNC(=O)[C@]1(c2ccccc2)CC[C@@H](C(=O)N2CCCC(NC(=O)c3cccnc3OC)CC2)c2ccccc21 (stereo partly shown) [compound 33]	> 1000 nM	80 nM
CCOC(=O)[C@]1(c2ccccc2)CC[C@@H](C(=O)NCCCNC(=O)c2ccccc2)c2ccccc21 [compound 4]	317 nM	22.2 nM
CCOC(=O)[C@]1(c2ccccc2)CC[C@H](C(=O)N(C)CCCNC(=O)c2ccccc2)c2ccccc21 [compound 22]	662 nM	16.4 nM
